One data set has as its system OCI-LY3. As to the kind of experiment: CCK-8 anti-proliferation, OCI-LY3. Particulars: read-out: IC50 Cell line OCI-LY3; CCK-8, 72 h; mean ± SD.
Another data set concerns Jurkat. As to the kind of experiment: CCK-8 anti-proliferation, Jurkat. Particulars: read-out: IC50 Cell line Jurkat; CCK-8, 72 h; mean ± SD.
In another data set the test system is Daudi. Nature of the data set: CCK-8 anti-proliferation, Daudi. Particulars: read-out: IC50 Cell line Daudi; CCK-8, 72 h; mean ± SD.
For a further data set, the system named is Ba/F3. Nature of the data set: CCK-8 anti-proliferation, parental Ba/F3. Particulars: Mus musculus, BaF3; parental cells, with IL-3; CCK-8, 72 h; mean ± SD. Format: cell-based, Murine.
A further data set deals with MV4-11. As to the kind of experiment: CCK-8 anti-proliferation, MV4-11. Particulars: read-out: IC50 Cell line MV4-11; CCK-8, 72 h; mean ± SD.
For a further data set, the system named is MOLT-4. As to the kind of experiment: CCK-8 anti-proliferation, MOLT-4. Particulars: read-out: IC50 Cell line MOLT-4; CCK-8, 72 h; mean ± SD.
For the next data set, the system named is U937 AML cells. Nature of the data set: CCK-8 anti-proliferation, U937. Particulars: for IC50: Homo sapiens, U-937, 72 h, read-out: IC50 Cell line U937.
The next data set concerns HL-60. Nature of the data set: CCK-8 anti-proliferation, HL-60. Particulars: read-out: IC50 Cell line HL-60; CCK-8, 72 h; mean ± SD.
The target of the next data set is T1, JAK3 (Homo sapiens, UniProt P52333).
T1 construct: purchased Invitrogen (Waltham, MA, USA)
T1 sequence (P52333 1-1124): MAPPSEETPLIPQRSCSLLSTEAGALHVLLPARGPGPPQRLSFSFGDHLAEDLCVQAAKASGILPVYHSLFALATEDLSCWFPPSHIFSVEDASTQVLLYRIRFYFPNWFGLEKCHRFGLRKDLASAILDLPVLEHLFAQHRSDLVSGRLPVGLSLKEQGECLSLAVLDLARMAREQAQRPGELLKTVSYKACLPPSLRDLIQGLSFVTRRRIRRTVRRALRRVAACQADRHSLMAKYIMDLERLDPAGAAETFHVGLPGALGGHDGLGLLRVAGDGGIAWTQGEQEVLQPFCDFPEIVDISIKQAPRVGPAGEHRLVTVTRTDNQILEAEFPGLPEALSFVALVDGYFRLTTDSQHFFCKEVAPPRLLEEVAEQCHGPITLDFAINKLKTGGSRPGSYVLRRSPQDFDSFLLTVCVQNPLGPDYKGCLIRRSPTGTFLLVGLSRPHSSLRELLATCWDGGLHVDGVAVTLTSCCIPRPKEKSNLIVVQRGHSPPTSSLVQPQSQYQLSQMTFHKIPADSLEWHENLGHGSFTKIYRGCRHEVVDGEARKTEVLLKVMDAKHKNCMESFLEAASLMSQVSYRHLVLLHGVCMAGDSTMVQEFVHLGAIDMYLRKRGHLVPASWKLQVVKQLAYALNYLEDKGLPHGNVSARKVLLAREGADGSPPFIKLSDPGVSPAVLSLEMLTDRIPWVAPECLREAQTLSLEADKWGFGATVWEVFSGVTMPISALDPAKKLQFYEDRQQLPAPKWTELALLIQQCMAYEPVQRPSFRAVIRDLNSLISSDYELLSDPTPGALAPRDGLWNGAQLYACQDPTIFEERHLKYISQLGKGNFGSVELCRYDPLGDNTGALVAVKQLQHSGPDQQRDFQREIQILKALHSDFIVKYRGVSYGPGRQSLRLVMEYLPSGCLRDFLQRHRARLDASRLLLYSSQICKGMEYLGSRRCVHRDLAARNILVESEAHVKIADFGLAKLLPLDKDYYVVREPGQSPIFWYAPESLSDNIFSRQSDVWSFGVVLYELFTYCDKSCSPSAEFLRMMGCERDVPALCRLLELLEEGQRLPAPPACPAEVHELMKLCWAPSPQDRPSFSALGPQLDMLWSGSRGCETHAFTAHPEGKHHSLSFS
Nature of the data set: Z'-Lyte kinase assay, JAK3. The format is biochemical.

A further data set concerns Ba/F3-TEL-JAK2. As to the kind of experiment: CCK-8 anti-proliferation, Ba/F3-TEL-JAK2. Format: cell-based, Murine. Particulars: Mus musculus; CCK-8, 72 h; mean ± SD.
For a further data set, the system named is Ba/F3-JAK3 (M511I). As to the kind of experiment: CCK-8 anti-proliferation, Ba/F3-JAK3 (M511I). The format is cell-based, Murine. Particulars: Mus musculus; CCK-8, 72 h; mean ± SD.
A further data set deals with Ba/F3-TEL-JAK1. As to the kind of experiment: CCK-8 anti-proliferation, Ba/F3-TEL-JAK1. Format: cell-based, Murine. Particulars: Mus musculus, CCK-8, 72 h, mean ± SD.
The test system of data set [1] is U937 cells. Nature of the data set: Cell cycle analysis by flow cytometry, U937. The format is cell-based, human.
Data set [2] relates to JAK3-STAT3/5 signal pathway in U937 cells. Nature of the data set: Western blotting of JAK3-STAT3/5 signal pathway, U937. Format: cell-based, human. Background: Immunoblotting shows a protein as a band on a membrane.
For data set [3], the system named is U937 cells. As to the kind of experiment: Apoptosis assay (7-AAD / Annexin V-PE flow cytometry), U937. Format: cell-based, human. Particulars: PF-06651600 treatment. Background: Flow cytometry measures light scatter and fluorescence of single cells or particles in a stream.
The target in another data set is T2, JAK1 (Homo sapiens, UniProt P23458).
T2 construct: purchased Invitrogen (Waltham, MA, USA)
T2 sequence (P23458 whole entry): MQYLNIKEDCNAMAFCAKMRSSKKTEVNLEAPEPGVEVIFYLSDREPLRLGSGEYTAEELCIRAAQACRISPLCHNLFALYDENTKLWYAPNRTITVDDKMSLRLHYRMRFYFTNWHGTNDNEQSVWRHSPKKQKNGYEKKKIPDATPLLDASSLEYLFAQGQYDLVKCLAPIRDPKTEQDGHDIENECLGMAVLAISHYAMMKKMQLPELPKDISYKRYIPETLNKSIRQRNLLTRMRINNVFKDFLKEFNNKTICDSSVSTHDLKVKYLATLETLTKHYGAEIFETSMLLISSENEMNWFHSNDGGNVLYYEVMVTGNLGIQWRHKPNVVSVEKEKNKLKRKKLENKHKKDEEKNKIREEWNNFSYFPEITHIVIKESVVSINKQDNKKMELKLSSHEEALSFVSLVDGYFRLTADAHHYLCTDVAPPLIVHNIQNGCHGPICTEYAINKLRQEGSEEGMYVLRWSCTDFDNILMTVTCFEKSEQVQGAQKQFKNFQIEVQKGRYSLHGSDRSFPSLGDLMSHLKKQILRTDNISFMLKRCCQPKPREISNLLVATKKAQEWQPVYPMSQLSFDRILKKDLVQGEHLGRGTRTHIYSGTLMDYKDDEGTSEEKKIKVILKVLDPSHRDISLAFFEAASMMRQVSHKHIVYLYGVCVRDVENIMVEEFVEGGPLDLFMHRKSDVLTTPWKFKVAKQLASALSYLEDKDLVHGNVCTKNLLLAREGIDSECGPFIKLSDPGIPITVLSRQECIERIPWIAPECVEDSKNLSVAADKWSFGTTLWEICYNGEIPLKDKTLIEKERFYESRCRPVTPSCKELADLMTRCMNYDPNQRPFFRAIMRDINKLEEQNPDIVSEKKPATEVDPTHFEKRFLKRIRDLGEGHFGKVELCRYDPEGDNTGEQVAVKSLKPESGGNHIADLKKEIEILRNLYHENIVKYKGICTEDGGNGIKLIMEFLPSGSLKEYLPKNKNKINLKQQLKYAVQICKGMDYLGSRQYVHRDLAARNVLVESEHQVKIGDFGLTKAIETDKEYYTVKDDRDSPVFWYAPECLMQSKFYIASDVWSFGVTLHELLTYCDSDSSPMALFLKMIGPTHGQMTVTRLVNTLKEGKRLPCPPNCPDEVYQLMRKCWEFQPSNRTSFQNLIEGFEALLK
Nature of the data set: Z'-Lyte kinase assay, JAK1. The format is biochemical.

Another data set deals with OCI-LY3 cells. As to the kind of experiment: Cell cycle analysis by flow cytometry, OCI-LY3. Format: cell-based. Particulars: PF-06651600 treatment.
For data set [4], the system named is JAK3-STAT3/5 signal pathway in Ba/F3-JAK3 M511I cell line. Nature of the data set: Western blotting of JAK3-STAT3/5 signal pathway, Ba/F3-JAK3 M511I. Format: cell-based, Murine. From the text: Murine Ba/F3 cells were purchased from DSMZ (Deutsche Sammlung von Mikroorganismen und Zellkulturen). Ba/F3 cell lines stably expressing JAK1 and JAK2 were self-established through electroporation of pCDNA3.1-TEL plasmids. JAK3 (M511I) was produced from pCDNA3.1 plasmids using the Amaxa Cell Line Nucleofector Kit V (Lonza, Cologne, Germany). Stable cell lines were selected by G418 (Merck, NJ, USA) and subsequent withdrawal of IL-3 (R&D, MN, USA). All Ba/F3 stable cell lines were confirmed by positive drug tests, DNA sequencing, and Western blotting (WB) analysis. Parental Ba/F3 cells were maintained in RPMI-1640 supplemented with 10% FBS (Biological Industries) and 1% penicillin-streptomycin (Biological Industries) and 10 ng/ml of IL-3, while all Ba/F3 stable cell lines were cultured in the same medium without IL-3.
Cells at a cell density of 8 × 10^5 cells/ml were treated with different concentrations of compounds or DMSO for the indicated time. The cells were then lysed with 1× SDS sample lysis buffer, as recommended by CST. […] The protein signals were detected with Amersham Imager 600 system (GE, Boston, MA, USA) using an ECL Western blotting detection kit (Thermo Fisher Scientific, Waltham, MA, USA).

As for `O=C(Nc1nc2cccc(-c3ccc(CN4CCS(=O)(=O)CC4)cc3)n2n1)C1CC1` [Filgotinib], the IC50 with OCI-LY3, in the data set with Jurkat, in the data set with Daudi, with Ba/F3, in the data set on MV4-11 and in the data set with MOLT-4 was over 10 µM in each case. In addition, the IC50 is over 10 µM in the data set on U937 AML cells; over 10 µM in the data set with HL-60; over 10 µM in the data set with Ba/F3-TEL-JAK2; 7.19 ± 2.5 µM with Ba/F3-JAK3 (M511I); over 10 µM with Ba/F3-TEL-JAK1. Besides, the “antiproliferative activity against U937 cells” value (from here on “antiproliferative activity”) in the data set on U937 AML cells is “almost totally inactive”. Further, the “JAK3 kinase inhibition” value on JAK3 is reported as “did not obviously suppress JAK3 kinase activity”.

Turning to “Si-JAK3: Synthetic JAK3 small interfering RNA from RiboBio; si-JAK3: 5′-GCAGACACTTAGCTTGGAA-3′ (chemistry not fully specified)”, the “cell cycle arrest” value in the data set on U937 cells [1] (JAK3 siRNA) is reported as “induced G0/G1 phase arrest”. Besides, in [2] (JAK3 siRNA for 72 h), the “activation of JAK3-STAT3/5 signal pathway” value is given as “suppressed activation of JAK3-STAT3/5 signal pathway”.

Consider `CCS(=O)(=O)N1CC(CC#N)(n2cc(-c3ncnc4[nH]ccc34)cn2)C1` [Baricitinib], for which the “antiproliferative activity” value in the data set with U937 AML cells was “micromolar IC50 values”. Also, at JAK3, the “JAK3 kinase inhibition” value is on record as “weakly suppressed the activity of JAK3”.

Turning to `CC[C@@H]1CN(C(=O)NCC(F)(F)F)C[C@@H]1c1cnc2cnc3[nH]ccc3n12` [Upadacitinib], the half-maximal inhibitory concentration (IC50) with OCI-LY3 is over 10 µM; with Jurkat, over 10 µM; in the data set with Daudi, over 10 µM; in the data set with Ba/F3, 0.9 ± 0.12 µM; in the data set on MV4-11 it was over 10 µM; in the data set on MOLT-4 it was over 10 µM. Moreover, the IC50 in the data set on U937 AML cells is 0.25 ± 0.03 µM; with HL-60, over 10 µM; in the data set on Ba/F3-TEL-JAK2, 0.18 ± 0.01 µM; in the data set with Ba/F3-JAK3 (M511I) it was 0.098 ± 0.047 µM; in the data set on Ba/F3-TEL-JAK1 it was 0.075 ± 0.008 µM.

With `C=CC(=O)N1C[C@H](Nc2ncnc3[nH]ccc23)CC[C@@H]1C` [PF-06651600, ritlecitinib], the “cell cycle arrest” value in the data set with U937 cells [1] (PF-06651600 treatment) is “dose-dependent G0/G1 phase cell cycle arrest”. The IC50 in the data set with OCI-LY3, in the data set on Jurkat, in the data set on Daudi, in the data set with Ba/F3, in the data set with MV4-11 and in the data set with MOLT-4 was over 10 µM throughout. For the same compound, the IC50 in the data set with U937 AML cells was 0.027 ± 0.004 µM; in the data set on HL-60 it was over 10 µM; in the data set with Ba/F3-TEL-JAK2, over 10 µM; in the data set with Ba/F3-JAK3 (M511I), 0.03 ± 0.01 µM; in the data set with Ba/F3-TEL-JAK1, over 10 µM. In addition, in the data set on U937 cells [3], the “apoptosis” value was “inducing apoptosis only barely”. Also, the “potency against JAK1 less than against JAK3” value on JAK1 is “approximately 3,000 fold”. Further, the “cell fate or phenotypes” value in the data set with OCI-LY3 cells is given as “did not obviously affect the cell fate or the phenotypes”. The “activation of JAK3 and the downstream signals” value in data set [2] was “potently suppressed the activation of JAK3 and the downstream signals in a dose-dependent manner”. Also, in data set [4], the “downstream signaling factors of JAK3” value is “inhibited the downstream signaling factors of JAK3”. In addition, the “phosphorylation of JAK3” value in data set [4] is listed as “enhanced the phosphorylation of JAK3”.

As to `NC(=O)c1cnc2[nH]ccc2c1N[C@@H]1[C@@H]2CC3C[C@H]1C[C@@](O)(C3)C2` [Peficitinib], the IC50 is 3.42 ± 0.01 µM in the data set with OCI-LY3; 2.32 ± 0.82 µM in the data set with Jurkat; 5.82 ± 0.15 µM in the data set with Daudi; 1.56 ± 0.09 µM with Ba/F3; 9.19 ± 0.98 µM in the data set with MV4-11; 2.22 ± 0.08 µM in the data set with MOLT-4. For the same compound, the half-maximal inhibitory concentration (IC50) with U937 AML cells turned out to be 0.09 ± 0.02 µM; with HL-60, 4.93 ± 1.22 µM; in the data set on Ba/F3-TEL-JAK2 it was 1.29 ± 0.09 µM; in the data set on Ba/F3-JAK3 (M511I), 0.1 ± 0.05 µM; with Ba/F3-TEL-JAK1, 0.6 ± 0.08 µM.

As to `Cc1cnc(Nc2ccc(OCCN3CCCC3)cc2)nc1Nc1cccc(S(=O)(=O)NC(C)(C)C)c1` [Fedratinib], the IC50 with OCI-LY3 is 3.18 ± 0.13 µM; in the data set with Jurkat, 1.42 ± 0.32 µM; in the data set on Daudi, 3.92 ± 0.21 µM; with Ba/F3, 3.47 ± 0.33 µM; in the data set with MV4-11, over 10 µM; in the data set with MOLT-4, 2.72 ± 0.54 µM. For the same compound, the IC50 in the data set with U937 AML cells is 2.53 ± 0.17 µM; in the data set on HL-60, 2.44 ± 0.16 µM; in the data set with Ba/F3-TEL-JAK2 it was 1.83 ± 0.06 µM; in the data set with Ba/F3-JAK3 (M511I), 2.84 ± 0.39 µM; with Ba/F3-TEL-JAK1, 1.96 ± 0.24 µM. For the same compound, the “antiproliferative activity” value in the data set with U937 AML cells is listed as “micromolar IC50 values”. Besides, on JAK3, the “JAK3 kinase inhibition” value is “weakly suppressed the activity of JAK3”.

For `N#CC[C@H](C1CCCC1)n1cc(-c2ncnc3[nH]ccc23)cn1` [Ruxolitinib], the IC50 with OCI-LY3 was over 10 µM; with Jurkat, over 10 µM; with Daudi, over 10 µM; in the data set with MV4-11, over 10 µM; with MOLT-4 it was over 10 µM; in the data set on U937 AML cells, 0.7 ± 0.11 µM. The IC50 in the data set with HL-60 is over 10 µM. Besides, the “antiproliferative activity” value in the data set with U937 AML cells was “sub-micromole antiproliferative activity”. On JAK3, the “JAK3 kinase inhibition” value was “reasonable inhibition of JAK3”.

For orientation: IC50 means the concentration at which inhibition is half-maximal.

The values are drawn from PMC8802890, “Identification of U937^JAK3-M511I Acute Myeloid Leukemia Cells as a Sensitive Model to JAK3 Inhibitor” (Frontiers in Oncology, 2022).
